Where two headings read alike, the source gives them in different places.
Test system: Mycosphaerella graminicola; anamorph: Septoria tritici; Bayer code SEPTTR
Assay: Fungicidal activity: leaf blotch of wheat, greenhouse wheat plants (variety Yuma), percent disease control
Type: in vivo
Conditions: Zymoseptoria tritici
Protocol: Evaluation of Fungicidal Activity: Leaf Blotch of Wheat (Mycosphaerella graminicola; anamorph: Septoria tritici; Bayer code SEPTTR)
Wheat plants (variety Yuma) were grown from seed in a greenhouse in 50% mineral soil/50% soil-less Metro mix until the first leaf was fully emerged, with 7-10 seedlings per pot. These plants were inoculated with an aqueous spore suspension of Septoria tritici either prior to or after fungicide treatments. After inoculation the plants were kept in 100% relative humidity (one day in a dark dew chamber followed by two to three days in a lighted dew chamber) to permit spores to germinate and infect the leaf. The plants were then transferred to a greenhouse for disease to develop.
The effectiveness of the test compounds in controlling disease was determined by assessing the severity of disease on treated plants, then converting the severity to percent control based on the level of disease on untreated, inoculated plants. • In each case of Table II the rating scale is as follows: […]

[1] = 24 h, One-Day Protectant (1DP), 100 ppm, wheat plants, read-out: SEPTTR 100 PPM 1DP (% Disease Control rating)
[2] = 72 h, Three-Day Curative (3DC), 100 ppm, wheat plants, read-out: SEPTTR 100 PPM 3DC (% Disease Control rating)
[3] = 24 h, read-out: SEPTTR 100 PPM 1DP (% Disease Control rating)
[4] = 72 h, read-out: SEPTTR 100 PPM 3DC (% Disease Control rating)

| SMILES | pest or weed control at 100 ppm [1] [%] | pest or weed control at 100 ppm [2] [%] | pest or weed control at 100 ppm [3] [%] | pest or weed control at 100 ppm [4] [%] |
| --- | --- | --- | --- | --- |
| O=c1nc(NCOCc2ccccc2)c(F)cn1COCc1ccccc1 [Compound 15, 1-(benzyloxymethyl)-4-(benzyloxymethylamino)-5-fluoropyrimidin-2(1H)-one] | 0 to 25 | 0 to 25 | – | – |
| Cc1ccc(Cn2cc(F)c(N(C)Cc3ccccc3F)nc2=O)cc1 [Compound 38, 5-fluoro-4-((2-fluorobenzyl)(methyl)amino)-1-(4-methylbenzyl)pyrimidin-2(1H)-one] | 0 to 25 | 0 to 25 | – | – |
| CCNc1nc(=O)n(CC(C)C)cc1F [Compound 107] | 0 to 25 | 26 to 50 | – | – |
| CN(c1nc(=O)n(C)cc1F)S(=O)(=O)Cc1ccccc1 [Compound 9, N-(5-fluoro-1-methyl-2-oxo-1,2-dihydropyrimidin-4-yl)-N-methyl-C-phenylmethanesulfonamide] | 26 to 50 | 0 to 25 | – | – |
| CN1CCN(CNc2nc(=O)n(CN3CCN(C)CC3)cc2F)CC1 [Compound 2, 5-fluoro-1-(4-methylpiperazin-1-ylmethyl)-4-[(4-methylpiperazin-1-ylmethyl)-amino]-1H-pyrimidin-2-one] | – | – | 76 to 100 | 76 to 100 |
| Nc1nc(=O)n(CC2CC2)cc1F [Compound 74, 4-amino-1-(cyclopropylmethyl)-5-fluoropyrimidin-2(1H)-one] | 76 to 100 | 51 to 75 | – | – |
| Cc1ccc(Cn2cc(F)c(N)nc2=O)cc1 [Compound 25, 4-amino-5-fluoro-1-(4-methylbenzyl)-pyrimidin-2(1H)-one] | 0 to 25 | 0 to 25 | – | – |
| CN(C)/C=N/c1nc(=O)n(Cc2ccc(Cl)cc2Cl)cc1F [Compound 5] | 0 to 25 | 0 to 25 | – | – |
| CCOC(=O)Nc1nc(=O)n(Cc2cccnc2)cc1F [Compound 83] | 26 to 50 | 26 to 50 | – | – |
| CCOCn1cc(F)c(NCc2ccccc2F)nc1=O [Compound 37, 1-(ethoxymethyl)-5-fluoro-4-(2-fluorobenzylamino)-pyrimidin-2(1H)-one] | 0 to 25 | 0 to 25 | – | – |
| Nc1nc(=O)n(Cc2cccnc2)cc1F [Compound 75] | 26 to 50 | 76 to 100 | – | – |
| CC(C)COC(=O)N(C)c1nc(=O)n(C)cc1F [Compound 11, (5-fluoro-1-methyl-2-oxo-1,2-dihydropyrimidin-4-yl)methylcarbamic acid isobutyl ester] | – | – | 26 to 50 | 0 to 25 |
| CC(=O)Nc1nc(=O)n(CC2CCCO2)cc1F (stereo not shown) [Compound 95] | 0 to 25 | 51 to 75 | – | – |
| O=c1nc(NCN2CCOCC2)c(F)cn1CN1CCOCC1 [Compound 1, 5-fluoro-1-morpholin-4-ylmethyl-4-[(morpholin-4-ylmethyl)amino]-1H-pyrimidin-2-one] | – | – | 76 to 100 | 76 to 100 |
| CC(C)Cn1cc(F)c(NCc2ccccc2F)nc1=O [Compound 105, 5-fluoro-4-(2-fluorobenzylamino)-1-isobutyl-pyrimidin-2(1H)-one] | – | – | 0 to 25 | 26 to 50 |
| CN(C)/C=N/c1nc(=O)n(COC(=O)C(C)(C)C)cc1F [Compound 12, 2,2-dimethylpropionic acid 4-(dimethylamino-methyleneamino)-5-fluoro-2-oxo-2H-pyrimidin-1-ylmethyl ester] | 76 to 100 | 76 to 100 | – | – |
| Cc1ccc(C(=O)Nc2nc(=O)n(C)cc2F)cc1 [Compound 8, N-(5-fluoro-1-methyl-2-oxo-1,2-dihydro-pyrimidin-4-yl)-4-methyl-benzamide] | 26 to 50 | 0 to 25 | – | – |

Source: US8916579B2, “5-fluoropyrimidinone derivatives” (Dow AgroSciences, LLC., priority 2009, dated 2014)
